Test results taken from patent US20180008587A1, “THIOHYDANTOIN ANDROGEN RECEPTOR ANTAGONISTS FOR THE TREATMENT OF CANCER” (Jaressen Pharmaceutica NV, priority 2016, published 2018).
Numbering of substitutions follows the chain as printed. Like-named read-outs stand apart in the source and are kept apart here.

Tests used:
Assay type in all cases: cell-based
[1] = target: T1, F876L mutant Androgen Receptor (AR-F876L) (Homo sapiens, UniProt P10275, F877L); test: LNCaP-AR-F876L ANT reporter assay (ARE firefly luciferase, antagonist mode); details: for Emax: read-out: LNCaP-AR-F876L ANT MAX % Inh; for IC50: read-out: LNCaP-AR-F876L ANT pIC50 (converted)
T1 construct: expressed in transfected cells; host or cells: LNCaP (LNCaP F876L)
T1 sequence (P10275 1-920 F877L): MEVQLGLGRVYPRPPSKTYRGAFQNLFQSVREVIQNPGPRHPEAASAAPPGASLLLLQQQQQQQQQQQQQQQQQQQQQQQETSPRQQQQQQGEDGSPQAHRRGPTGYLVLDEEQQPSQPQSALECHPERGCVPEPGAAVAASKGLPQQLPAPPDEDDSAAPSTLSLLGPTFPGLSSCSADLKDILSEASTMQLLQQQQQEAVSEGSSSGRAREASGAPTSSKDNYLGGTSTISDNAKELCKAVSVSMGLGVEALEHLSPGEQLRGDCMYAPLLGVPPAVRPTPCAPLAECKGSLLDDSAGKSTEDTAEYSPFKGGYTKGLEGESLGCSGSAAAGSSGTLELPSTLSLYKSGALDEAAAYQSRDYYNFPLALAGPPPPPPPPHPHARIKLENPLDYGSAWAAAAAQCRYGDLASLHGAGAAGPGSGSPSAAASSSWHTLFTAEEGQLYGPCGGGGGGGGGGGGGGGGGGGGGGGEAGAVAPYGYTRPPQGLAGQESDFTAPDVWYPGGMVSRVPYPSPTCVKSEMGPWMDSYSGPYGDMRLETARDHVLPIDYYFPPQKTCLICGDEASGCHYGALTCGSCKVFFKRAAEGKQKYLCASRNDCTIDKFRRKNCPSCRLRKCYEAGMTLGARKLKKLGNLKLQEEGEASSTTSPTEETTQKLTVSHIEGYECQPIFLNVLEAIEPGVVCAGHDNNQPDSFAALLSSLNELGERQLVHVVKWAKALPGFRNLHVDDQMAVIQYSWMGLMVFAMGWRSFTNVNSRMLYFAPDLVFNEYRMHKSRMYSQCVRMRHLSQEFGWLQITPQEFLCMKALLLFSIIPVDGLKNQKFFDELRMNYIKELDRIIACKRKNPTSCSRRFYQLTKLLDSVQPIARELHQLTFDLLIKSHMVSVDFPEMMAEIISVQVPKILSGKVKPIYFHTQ
Summary of the method: (§1)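 Read-out is luciferase luminescence taken 1 h after Steady-Glo addition, following 20-24 h compound exposure at 37 °C in LNCaP pools stably carrying wild-type or F876L AR. Cells were grown in charcoal-stripped serum. Antagonist wells received agonist at 400 pM (WT) or 600 pM (F876L).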

[2] = target: T1, F876L mutant Androgen Receptor (AR-F876L); test: LNCaP-AR-F876L AG reporter assay (ARE firefly luciferase, agonist mode); details: for Emax: read-out: LNCaP-AR-F876L AG MAX % Stim
Summary of the method: (§2)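 Puromycin-selected pooled LNCaP populations expressing AR-wt or AR-F876L are seeded in CSS medium and treated with compound for 20-24 h at 37 °C. For antagonist testing, agonist is added at 400 pM (WT) or 600 pM (F876L). Potency values derive from least-squares fitting of luminescence RLU.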

[3] = target: T2, wild-type Androgen Receptor (AR-wt) (Homo sapiens, UniProt P10275); test: LNCaP-AR-wt AG reporter assay (ARE firefly luciferase, agonist mode); details: for Emax: read-out: LNCaP-AR-wt AG MAX % Stim
T2 construct: expressed in transfected cells; host or cells: LNCaP (LNCaP AR (cs))
T2 sequence (P10275 1-920): T1 sequence (P10275 1-920 F877L) with L877F
Summary of the method: as §2

[4] = target: T2, wild-type Androgen Receptor (AR-wt); test: LNCaP-AR-wt ANT reporter assay (ARE firefly luciferase, antagonist mode); details: for IC50: antagonist mode, 400 pM R-1881 challenge, −Log10(IC50 [Molar]), read-out: LNCaP-AR-wt ANT pIC50 (converted); for Emax: read-out: LNCaP-AR-wt ANT MAX % Inh
Summary of the method: as §1

[5] = maximum % inhibition of R1881 control response over tested concentration range
[6] = agonist mode, −Log10(EC50 [Molar]), read-out: LNCaP-AR-F876L AG pEC50 (converted)
[7] = agonist mode, −Log10(EC50 [Molar]), read-out: LNCaP-AR-wt AG pEC50 (converted)
[8] = maximum % stimulation (agonist response) over tested concentration range

SMILES	Emax [1, 5]	IC50 [1]	EC50 [2, 6]	Emax [2]	EC50 [3, 7]	Emax [3]	IC50 [4]	Emax [4, 5]	Emax [1]	EC50 [2]	EC50 [3]	Emax [4]	Emax [2, 8]	Emax [3, 8]
N#Cc1ncc(N2C(=O)C3(CCC3)N(c3cccc(OC(F)(F)F)c3)C2=S)cc1C(F)(F)F [Cpd 97, 5-[5-oxo-7-thioxo-8-[3-(trifluoromethoxy)phenyl]-6,8-diazaspiro[3.4]octan-6-yl]-3-(trifluoromethyl)pyridine-2-carbonitrile]	99.6%	676 nM	> 15100 nM	1.6%	> 15100 nM	0.7%	912 nM	100%						
CNC(=O)c1ccc(N2C(=S)N(c3cnc(C#N)c(C)c3)C(=O)C2(C)C)cc1F [Cpd 12, 4-[3-(6-cyano-5-methyl-3-pyridyl)-5,5-dimethyl-4-oxo-2-thioxo-imidazolidin-1-yl]-2-fluoro-N-methyl-benzamide]		229 nM		-0.3%		0.9%	1740 nM		98.7%	> 15100 nM	> 15100 nM	98.4%		
Cc1cc(N2C(=O)C3(CCC3)N(c3ccc(OCCN4CCN(C)CC4)cc3)C2=S)cnc1C#N [Cpd 10, 3-methyl-5-[8-[4-[2-(4-methylpiperazin-1-yl)ethoxy]phenyl]-5-oxo-7-thioxo-6,8-diazaspiro[3.4]octan-6-yl]pyridine-2-carbonitrile]	98.4%	490 nM	> 15100 nM		> 15100 nM		724 nM	99%					0.1%	0.6%
N#Cc1ncc(N2C(=O)C3(CCC3)N(c3ccc(C(F)(F)F)cc3)C2=S)cc1C(F)(F)F [Cpd 98, 5-[5-oxo-7-thioxo-8-[4-(trifluoromethyl)phenyl]-6,8-diazaspiro[3.4]octan-6-yl]-3-(trifluoromethyl)pyridine-2-carbonitrile]	98.9%	245 nM	> 15100 nM		> 15100 nM		295 nM	102%					1.6%	0%
N#Cc1ncc(N2C(=O)C3(CCC3)N(c3ccc(OCCCN4CCCC4)c(F)c3)C2=S)cc1C(F)(F)F [Cpd 55, 5-[8-[3-fluoro-4-(3-pyrrolidin-1-ylpropoxy)phenyl]-5-oxo-7-thioxo-6,8-diazaspiro[3.4]octan-6-yl]-3-(trifluoromethyl)pyridine-2-carbonitrile]		316 nM		0.6%		0.7%	813 nM		100%	> 15100 nM	> 15100 nM	101%		
COCCNC(=O)c1ccc(N2C(=S)N(c3cnc(C#N)c(C(F)(F)F)c3)C(=O)C23CCC3)cc1F [Cpd 46, 4-[6-[6-cyano-5-(trifluoromethyl)-3-pyridyl]-5-oxo-7-thioxo-6,8-diazaspiro[3.4]octan-8-yl]-2-fluoro-N-(2-methoxyethyl)benzamide]		631 nM		0.2%		-0.1%	891 nM		98.3%	> 15100 nM	> 15100 nM	99.9%		
N#Cc1ncc(N2C(=O)C3(CCC3)N(c3ccc(Oc4ccccn4)cc3)C2=S)cc1C(F)(F)F [Cpd 103, 5-[5-oxo-8-[4-(2-pyridyloxy)phenyl]-7-thioxo-6,8-diazaspiro[3.4]octan-6-yl]-3-(trifluoromethyl)pyridine-2-carbonitrile]		107 nM		2%		4%	562 nM		64.9%	> 15100 nM	> 15100 nM	29%		
N#Cc1ncc(N2C(=O)C3(CCC3)N(c3ccc(C(=O)NCc4cccs4)c(F)c3)C2=S)cc1C(F)(F)F [Cpd 59, 4-[6-[6-cyano-5-(trifluoromethyl)-3-pyridyl]-5-oxo-7-thioxo-6,8-diazaspiro[3.4]octan-8-yl]-2-fluoro-N-(2-thienylmethyl)benzamide]		676 nM		0.7%		1.5%	1290 nM		100%	> 15100 nM	> 15100 nM	102%		
N#Cc1ncc(N2C(=O)C3(CCC3)N(c3ccc(C(=O)NCC4CCCC4)c(F)c3)C2=S)cc1C(F)(F)F [Cpd 21, 4-[6-[6-cyano-5-(trifluoromethyl)-3-pyridyl]-5-oxo-7-thioxo-6,8-diazaspiro[3.4]octan-8-yl]-N-(cyclopentylmethyl)-2-fluoro-benzamide]	98.6%	389 nM	> 15100 nM		> 15100 nM		724 nM	100%					0.1%	-0.2%
Cc1cc(N2C(=O)C3(CCC3)N(c3ccc(C(=O)Nc4nccs4)c(F)c3)C2=S)cnc1C#N [Cpd 63, 4-[6-(6-cyano-5-methyl-3-pyridyl)-5-oxo-7-thioxo-6,8-diazaspiro[3.4]octan-8-yl]-2-fluoro-N-thiazol-2-yl-benzamide]		219 nM		0.3%		0.7%	776 nM		83.4%	> 15100 nM	> 15100 nM	68.6%		
N#Cc1ncc(N2C(=O)C3(CCC3)N(c3ccc(C(=O)NCCN4CCOCC4)c(F)c3)C2=S)cc1C(F)(F)F [Cpd 22, 4-[6-[6-cyano-5-(trifluoromethyl)-3-pyridyl]-5-oxo-7-thioxo-6,8-diazaspiro[3.4]octan-8-yl]-2-fluoro-N-(2-morpholinoethyl)benzamide]	99.7%	724 nM	> 15100 nM		> 15100 nM		2450 nM	99.5%					0.1%	0%
Cc1cc(N2C(=O)C3(CCC3)N(c3ccc(OC4CCNCC4)cc3)C2=S)cnc1C#N [Cpd 83, 3-methyl-5-[5-oxo-8-[4-(4-piperidyloxy)phenyl]-7-thioxo-6,8-diazaspiro[3.4]octan-6-yl]pyridine-2-carbonitrile]	99.5%	1000 nM	> 15100 nM		> 15100 nM		2240 nM	98.8%					0.5%	0.1%
